Among the targets are PIK3CB (Human) (UniProt P42338); PIK3CA (human) (UniProt P42336); PIK3CD (Human) (UniProt O00329).
What all share (assay): Enzyme Assay

A value given as a limit tells only on which side of the number the result lay.

One may read the IC50 as the concentration needed to halve the response being measured.

PIK3CD (Human), sequence (O00329 whole entry, looked up): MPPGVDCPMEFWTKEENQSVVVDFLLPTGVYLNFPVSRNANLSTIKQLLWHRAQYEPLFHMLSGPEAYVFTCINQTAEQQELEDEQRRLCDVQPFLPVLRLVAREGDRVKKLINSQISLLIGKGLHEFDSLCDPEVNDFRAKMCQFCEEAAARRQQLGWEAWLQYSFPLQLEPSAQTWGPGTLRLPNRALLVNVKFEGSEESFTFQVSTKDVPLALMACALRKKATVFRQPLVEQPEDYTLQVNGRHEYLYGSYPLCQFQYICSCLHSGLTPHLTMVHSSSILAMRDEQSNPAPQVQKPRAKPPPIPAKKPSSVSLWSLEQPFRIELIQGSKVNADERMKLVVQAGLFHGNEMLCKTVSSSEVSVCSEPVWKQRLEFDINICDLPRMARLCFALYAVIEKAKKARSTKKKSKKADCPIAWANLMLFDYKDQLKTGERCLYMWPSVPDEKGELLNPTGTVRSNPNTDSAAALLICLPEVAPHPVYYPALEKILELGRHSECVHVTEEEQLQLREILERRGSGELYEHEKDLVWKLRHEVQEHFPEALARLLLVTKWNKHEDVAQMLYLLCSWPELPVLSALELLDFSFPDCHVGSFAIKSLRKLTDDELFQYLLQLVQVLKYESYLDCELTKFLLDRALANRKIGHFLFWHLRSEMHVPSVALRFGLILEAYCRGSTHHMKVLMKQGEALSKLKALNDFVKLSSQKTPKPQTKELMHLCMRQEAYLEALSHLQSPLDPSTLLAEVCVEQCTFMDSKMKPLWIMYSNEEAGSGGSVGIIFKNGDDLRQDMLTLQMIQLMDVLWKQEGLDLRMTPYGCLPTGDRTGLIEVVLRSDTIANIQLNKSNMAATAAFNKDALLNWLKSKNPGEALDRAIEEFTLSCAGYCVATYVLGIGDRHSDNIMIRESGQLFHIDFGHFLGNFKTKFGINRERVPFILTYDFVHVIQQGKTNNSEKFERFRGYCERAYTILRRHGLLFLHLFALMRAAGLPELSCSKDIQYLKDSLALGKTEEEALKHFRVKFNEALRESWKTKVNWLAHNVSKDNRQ
PIK3CB (Human), sequence (P42338 whole entry, looked up): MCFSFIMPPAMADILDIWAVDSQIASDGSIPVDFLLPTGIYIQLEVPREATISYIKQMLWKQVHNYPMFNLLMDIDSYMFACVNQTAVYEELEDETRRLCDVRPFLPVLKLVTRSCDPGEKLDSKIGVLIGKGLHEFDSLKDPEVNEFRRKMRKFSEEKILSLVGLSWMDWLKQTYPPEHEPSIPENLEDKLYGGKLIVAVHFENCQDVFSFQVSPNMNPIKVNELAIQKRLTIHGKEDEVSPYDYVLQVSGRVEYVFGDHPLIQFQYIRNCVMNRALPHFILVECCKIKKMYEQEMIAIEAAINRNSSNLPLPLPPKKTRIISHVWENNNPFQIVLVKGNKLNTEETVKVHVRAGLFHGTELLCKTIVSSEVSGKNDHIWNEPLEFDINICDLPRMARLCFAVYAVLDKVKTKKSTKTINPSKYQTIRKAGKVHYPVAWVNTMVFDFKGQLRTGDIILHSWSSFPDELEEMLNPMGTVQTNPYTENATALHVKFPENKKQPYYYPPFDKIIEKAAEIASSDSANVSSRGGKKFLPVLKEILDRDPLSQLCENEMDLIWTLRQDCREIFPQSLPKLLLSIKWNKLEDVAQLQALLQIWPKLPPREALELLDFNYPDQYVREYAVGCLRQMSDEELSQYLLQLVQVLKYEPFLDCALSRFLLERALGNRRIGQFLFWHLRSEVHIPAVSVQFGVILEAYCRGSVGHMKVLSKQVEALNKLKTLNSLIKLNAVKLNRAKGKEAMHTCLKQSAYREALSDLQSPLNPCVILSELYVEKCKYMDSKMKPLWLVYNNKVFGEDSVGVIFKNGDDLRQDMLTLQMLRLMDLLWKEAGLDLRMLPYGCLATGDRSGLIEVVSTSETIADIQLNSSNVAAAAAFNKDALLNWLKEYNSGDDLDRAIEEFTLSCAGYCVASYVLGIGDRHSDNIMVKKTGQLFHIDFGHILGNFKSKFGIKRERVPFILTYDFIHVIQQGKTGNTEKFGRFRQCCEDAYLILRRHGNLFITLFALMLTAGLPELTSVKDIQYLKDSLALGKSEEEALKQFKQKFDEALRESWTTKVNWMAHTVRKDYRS
PIK3CA (human), sequence (P42336 whole entry, looked up): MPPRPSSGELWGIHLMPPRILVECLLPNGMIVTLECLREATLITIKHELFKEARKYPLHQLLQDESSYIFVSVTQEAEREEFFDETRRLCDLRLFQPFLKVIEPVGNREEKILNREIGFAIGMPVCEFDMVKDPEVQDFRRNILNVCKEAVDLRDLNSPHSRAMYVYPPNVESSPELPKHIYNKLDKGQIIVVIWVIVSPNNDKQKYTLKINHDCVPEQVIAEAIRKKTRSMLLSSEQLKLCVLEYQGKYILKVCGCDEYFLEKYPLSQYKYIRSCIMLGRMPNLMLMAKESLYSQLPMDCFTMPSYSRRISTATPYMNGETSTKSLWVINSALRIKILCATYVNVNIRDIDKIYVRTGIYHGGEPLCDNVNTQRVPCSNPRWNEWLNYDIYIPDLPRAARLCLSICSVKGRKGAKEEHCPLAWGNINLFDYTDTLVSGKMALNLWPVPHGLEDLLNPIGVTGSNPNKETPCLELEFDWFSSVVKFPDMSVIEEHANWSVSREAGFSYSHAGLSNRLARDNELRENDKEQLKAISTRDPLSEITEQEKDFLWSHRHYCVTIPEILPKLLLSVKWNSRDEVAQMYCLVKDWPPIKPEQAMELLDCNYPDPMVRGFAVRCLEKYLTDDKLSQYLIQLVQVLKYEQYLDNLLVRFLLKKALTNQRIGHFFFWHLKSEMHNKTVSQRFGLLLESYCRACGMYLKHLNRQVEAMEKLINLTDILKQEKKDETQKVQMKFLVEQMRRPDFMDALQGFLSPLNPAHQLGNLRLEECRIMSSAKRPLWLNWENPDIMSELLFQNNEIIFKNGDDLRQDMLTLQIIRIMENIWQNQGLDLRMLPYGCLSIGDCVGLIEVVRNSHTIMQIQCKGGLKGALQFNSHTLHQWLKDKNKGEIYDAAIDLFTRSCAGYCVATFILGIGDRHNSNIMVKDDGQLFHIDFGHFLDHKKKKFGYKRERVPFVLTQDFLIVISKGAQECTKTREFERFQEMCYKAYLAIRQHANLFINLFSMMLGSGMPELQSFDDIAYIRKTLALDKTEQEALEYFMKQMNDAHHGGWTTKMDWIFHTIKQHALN

As to `CC(=O)Nc1nc2ccc(-c3nn(Cc4cc5cccc(C)c5c(=O)n4C)c4ncnc(N)c34)cc2s1`, the IC50 on PIK3CB (Human) was in the range of 100 to 1000 nM.
Consider `CNC(=O)c1nn(Cc2cc3cccc(C)c3c(=O)n2-c2ccccc2)c2ncnc(N)c12`, for which the half-inhibitory concentration (IC50) on PIK3CA (human) was above 10 µM; at PIK3CD (Human), 100 to 1000 nM.
`Cc1cccc2cc([C@H](C)Nc3ncnc4[nH]cnc34)n(C3CCC3)c(=O)c12` gave an IC50 at PIK3CD (Human) below 100 nM.
For `Cc1ccccc1-n1c(Cn2nc(C#N)c3c(N)ncnc32)cc2cccc(C)c2c1=O`, the IC50 on PIK3CA (human) was above 10 µM; against PIK3CB (Human) it was above 10000 nM.
The corresponding values for `Cc1cccc2cc(Cn3nc(-c4cnn(C)c4)c4c(N)ncnc43)n(-c3ccccc3F)c(=O)c12` are above 10 µM and above 10000 nM.
In turn, `Cc1ccccc1-n1c(Cn2nc(-c3ccc4nc(N)ncc4c3)c3c(N)ncnc32)cc2cccc(C)c2c1=O` gave an IC50 on PIK3CB (Human) of 100 to 1000 nM.
For `CC(=O)Nc1nc2ccc(-c3nn(Cc4cc5cccc(C)c5c(=O)n4-c4ccccc4)c4ncnc(N)c34)cc2[nH]1`, the IC50 is above 10 µM against PIK3CA (human) and above 10000 nM against PIK3CB (Human).
Turning to `Cc1cccc2cc(Cn3nc(-c4cc(O)cc(F)c4)c4c(N)ncnc43)n(-c3ccccc3C(C)C)c(=O)c12`, the values for the IC50 against PIK3CA (human) and at PIK3CB (Human) were 0.1 to 1 µM and 100 to 1000 nM, respectively.
For the compound `Cc1ccccc1-n1c(Cn2nc(C#C[C@H](C)O)c3c(N)ncnc32)cc2cccc(C)c2c1=O`, the values for the IC50 on PIK3CA (human) and against PIK3CD (Human) were above 10 µM and 100 to 1000 nM, respectively.
Compound `Cc1cccc2cc(Cn3nc(-c4cc(O)cc(F)c4)c4c(N)ncnc43)n(-c3ccccc3O)c(=O)c12` gave an IC50 at PIK3CB (Human) of 100 to 1000 nM.
Regarding `Cc1ccccc1-n1c(Cn2nc(-c3nn[nH]n3)c3c(N)ncnc32)cc2cccc(C)c2c1=O`, the IC50 against PIK3CD (Human) is below 100 nM.
Same read-out and setting: the result for `Nc1ncnc2c1c(-c1cccc(O)c1)nn2Cc1cc2cccc(F)c2c(=O)n1-c1ccccc1F` reads 100 to 1000 nM.
Take `Cc1cccc2cc(Cn3nc(-c4cccc(O)c4)c4c(N)ncnc43)n(-c3ccccc3)c(=O)c12`: the IC50 against PIK3CA (human) was above 10 µM; against PIK3CB (Human) it was above 10000 nM.
`Cc1cccnc1-n1c(Cn2nc(-c3ccc4oc(N)nc4c3)c3c(N)ncnc32)cc2cccc(C)c2c1=O` returned an IC50 at PIK3CD (Human) below 100 nM.
Still for that read-out and setting: the result for `Cc1cccc2cc(Cn3nc(C(N)=O)c4c(N)ncnc43)n(-c3ccccc3)c(=O)c12` reads 100 to 1000 nM.
As to `COCc1nn(Cc2cc3cccc(C)c3c(=O)n2-c2ccccc2C)c2ncnc(N)c12`, the results for the IC50 on PIK3CA (human) and at PIK3CD (Human) were above 10 µM and above 10000 nM, respectively.
Turning to `Cc1cccnc1-n1c(Cn2nc(-c3cccc(O)c3)c3c(N)ncnc32)cc2ccccc2c1=O`, the IC50 at PIK3CD (Human) is 100 to 1000 nM.
Regarding `Cc1cccc2cc([C@H](C)Nc3nc(N)ncc3Cl)n(-c3ccccc3)c(=O)c12`, the IC50 against PIK3CA (human) is above 10 µM; against PIK3CD (Human), below 100 nM.
`Cc1cccc2cc(C(C)Nc3ncnc4[nH]cnc34)n(CCN3CCCC3)c(=O)c12` (centres undefined): the concentration for half-maximal inhibition (IC50) against PIK3CD (Human) is below 100 nM.
`CCc1nn(Cc2cc3cccc(C)c3c(=O)n2-c2ccccc2)c2ncnc(N)c12`: the IC50 against PIK3CD (Human) is below 100 nM.
Consider `CC(=O)Nc1nc2cc(-c3nn(Cc4cc5cccc(C)c5c(=O)n4-c4ccccc4C)c4ncnc(N)c34)ccc2s1`, for which the figures for the IC50 against PIK3CA (human) and at PIK3CD (Human) were above 10 µM and 100 to 1000 nM, respectively.
Turning to `Cc1cccc2cc(Cn3nc(C(C)(C)O)c4c(N)ncnc43)n(-c3ccccc3)c(=O)c12`, the IC50 at PIK3CA (human) was above 10 µM; against PIK3CD (Human), above 10000 nM.
Taken in the same sequence, the figures for `Cc1cccc2cc(C(C)Nc3ncnc4[nH]cnc34)n(C3CCC3)c(=O)c12` (centres undefined) were above 10 µM and below 100 nM.
The compound `CC(=O)Nc1nc2ccc(-c3nn(Cc4cc5cccc(C)c5c(=O)n4-c4ccccc4C)c4ncnc(N)c34)cc2[nH]1` registered an IC50 against PIK3CD (Human) below 100 nM.
Compound `CCc1ccccc1-n1c(Cn2nc(-c3cc(O)cc(F)c3)c3c(N)ncnc32)cc2cccc(C)c2c1=O` gave an IC50 against PIK3CB (Human) of 100 to 1000 nM.
In the case of `Cc1cccc2cc(Cn3nc(-c4ccc5nc(N)[nH]c5c4)c4c(N)ncnc43)n(-c3ccccc3)c(=O)c12`, at PIK3CD (Human), the IC50 is below 100 nM.
`CCC(Nc1ncnc2[nH]cnc12)c1cc2cccc(C)c2c(=O)n1-c1c(F)cccc1F` (centres undefined) displayed an IC50 against PIK3CB (Human) above 10000 nM.
Take `CCC(Nc1ncnc2[nH]cnc12)c1cc2cccc(C)c2c(=O)n1-c1ccc(F)cc1` (centres undefined): at PIK3CD (Human), the IC50 was below 100 nM.
As for `Cc1cccc2cc([C@H](C)Nc3nc(N)ncc3C(F)(F)F)n(-c3ccccc3)c(=O)c12`, the IC50 at PIK3CA (human) was above 10 µM; against PIK3CD (Human), below 100 nM.
Taken in the same sequence, the figures for `Cc1cccc2cc([C@H](C)Nc3ncnc4[nH]ncc34)n(-c3ccccc3)c(=O)c12` were above 10 µM and 100 to 1000 nM.
Taken in the same sequence, the figures for `Cc1cccnc1-n1c(Cn2nc(Br)c3c(N)ncnc32)cc2cccc(C)c2c1=O` were above 10 µM and 100 to 1000 nM.
Taken in the same sequence, the figures for `Cc1cccnc1-n1c(Cn2nc(Cl)c3c(N)ncnc32)cc2cccc(C)c2c1=O` were above 10 µM and 100 to 1000 nM.
As for `Cc1cccc2cc([C@H](C)Nc3nc(F)nc4[nH]cnc34)n(-c3ccccc3)c(=O)c12`, the IC50 at PIK3CD (Human) was below 100 nM.
Compound `Cc1cccc2cc(Cn3nc(C#CC4CC4)c4c(N)ncnc43)n(-c3ccccc3F)c(=O)c12` gave an IC50 on PIK3CD (Human) of 100 to 1000 nM.
Still for that read-out and setting: the result for `Cc1cccc2cc(C(C)Nc3ncnc4[nH]cnc34)n(C3CCCC3)c(=O)c12` (centres undefined) reads below 100 nM.
As for `Cc1ccccc1-n1c(Cn2nc(-c3ccc4oc(N)nc4c3)c3c(N)ncnc32)cc2cccc(C)c2c1=O`, the values for the IC50 against PIK3CA (human) and at PIK3CD (Human) were 0.1 to 1 µM and below 100 nM, respectively.
The corresponding values for `Cc1cccc2cc([C@H](C)NC(=O)c3cnn4ccccc34)n(-c3ccccc3)c(=O)c12` are above 10 µM and above 10000 nM.
With `Cc1ccccc1-n1c(Cn2nc(C(F)F)c3c(N)ncnc32)cc2cccc(C)c2c1=O`, the IC50 against PIK3CD (Human) is below 100 nM.
The same measure, in the same setting: next, `Cc1cccc2cc(Cn3nc(I)c4c(N)ncnc43)n(C3CCCC3)c(=O)c12`: 100 to 1000 nM.
Take `CCC(Nc1ncnc2[nH]cnc12)c1cc2cccc(C)c2c(=O)n1C1CCN(C)CC1` (centres undefined): the IC50 at PIK3CA (human) was above 10 µM; on PIK3CD (Human), 100 to 1000 nM.
`Cc1cccc2cc([C@@H](C)Nc3ncnc4[nH]cnc34)n(C3CC3)c(=O)c12` yielded an IC50 at PIK3CD (Human) above 10000 nM.
Turning to `COc1ccc(-c2nn(Cc3cc4cccc(C)c4c(=O)n3-c3ccccc3C)c3ncnc(N)c23)cc1`, the IC50 at PIK3CA (human) is above 10 µM; against PIK3CD (Human) it was 100 to 1000 nM.
Regarding `Cc1cccc2cc(Cn3nc(-c4cn[nH]c4)c4c(N)ncnc43)n(C3CCN(C)CC3)c(=O)c12`, the IC50 against PIK3CD (Human) was 100 to 1000 nM.
Consider `Cc1cccc2cc(Cn3nc(-c4ccc5nc(N)cn5c4)c4c(N)ncnc43)n(-c3ccccc3)c(=O)c12`, for which the values for the IC50 against PIK3CA (human) and on PIK3CD (Human) were above 10 µM and 100 to 1000 nM, respectively.
In turn, `Cc1cccc2cc(C(C)Nc3ncnc4[nH]cnc34)n(-c3ccccc3)c(=O)c12` (centres undefined) displayed an IC50 on PIK3CD (Human) below 100 nM.
`Cc1cccc2cc([C@H](C)Nc3ncnc4[nH]nc(Cl)c34)n(-c3ccccc3)c(=O)c12`: the IC50 on PIK3CA (human) is above 10 µM; on PIK3CD (Human), below 100 nM.
On to `CC(Nc1ncnc2[nH]cnc12)c1cc2ccccc2c(=O)n1C1CCN(C)CC1` (centres undefined), for which, on PIK3CD (Human), the IC50 fell in the range of 100 to 1000 nM.
In the case of `Cc1cccc2cc([C@H](C)Nc3ncnc4[nH]ccc34)n(-c3ccccc3)c(=O)c12`, the concentration for half-maximal inhibition (IC50) on PIK3CA (human) is above 10 µM; on PIK3CD (Human), below 100 nM.
Turning to `CC(=O)c1nn(Cc2cc3cccc(C)c3c(=O)n2-c2ccccc2)c2ncnc(N)c12`, the IC50 at PIK3CA (human) is above 10 µM; on PIK3CD (Human) it was 100 to 1000 nM.
With `CCC(Nc1ncnc2[nH]cnc12)c1cc2cccc(C)c2c(=O)n1-c1ccccc1` (centres undefined), the figures for the half-maximal inhibitory concentration (IC50) against PIK3CA (human) and against PIK3CD (Human) were above 10 µM and below 100 nM, respectively.
On PIK3CD (Human), `Cc1cccc2cc(Cn3nc(-c4ccc5oc(N)nc5c4)c4c(N)ncnc43)n(-c3ccccc3)c(=O)c12` displayed an IC50 below 100 nM.
On PIK3CB (Human), `Cc1ccccc1-n1c(Cn2nc(-c3ccc4ncnc(N)c4c3)c3c(N)ncnc32)cc2cccc(C)c2c1=O` came in with a half-maximal inhibitory concentration (IC50) above 10000 nM.
As to `Cc1ccccc1-n1c(Cn2nc(C#C[C@@H](C)O)c3c(N)ncnc32)cc2ccccc2c1=O`, the IC50 against PIK3CA (human) was above 10 µM; on PIK3CD (Human), 100 to 1000 nM.
For the compound `Cc1cccc2cc(Cn3nc(-c4cc(O)cc(F)c4)c4c(N)ncnc43)n(-c3ccccc3Cl)c(=O)c12`, the IC50 against PIK3CB (Human) lay within 100 to 1000 nM.
The compound `Cc1ccccc1-n1c(Cn2nc(-c3ccc4nc(N)[nH]c4c3)c3c(N)ncnc32)cc2cccc(C)c2c1=O` gave a half-maximal inhibitory concentration (IC50) against PIK3CD (Human) below 100 nM.
For the compound `Cc1ccccc1-n1c(Cn2nc(I)c3c(N)ncnc32)cc2ccccc2c1=O`, the figures for the IC50 on PIK3CA (human) and against PIK3CD (Human) were above 10 µM and 100 to 1000 nM, respectively.
On to `CC(=O)Nc1nc2ccc(-c3nn(Cc4cc5cccc(C)c5c(=O)n4C4CCC4)c4ncnc(N)c34)cc2s1`, for which, at PIK3CB (Human), the 50% inhibitory concentration (IC50) lay within 100 to 1000 nM.
In the case of `Cc1ccccc1-n1c(Cn2nc(-c3ccc(Cl)c(O)c3)c3c(N)ncnc32)cc2cccc(C)c2c1=O`, at PIK3CA (human), the IC50 is above 10 µM.
`Cc1cccc2cc([C@H](C)Nc3nc(Cl)nc4[nH]cnc34)n(-c3ccccc3)c(=O)c12` returned an IC50 on PIK3CD (Human) below 100 nM.
On PIK3CB (Human), `CCn1c(Cn2nc(-c3ccc4nc(NC(C)=O)sc4c3)c3c(N)ncnc32)cc2cccc(C)c2c1=O` displayed an IC50 of 100 to 1000 nM.
For `Cc1cccc2cc(C(C)Nc3ncnc4[nH]cnc34)n(CCN3CCOCC3)c(=O)c12` (centres undefined), the IC50 on PIK3CD (Human) is below 100 nM.
`Cc1cccc2cc([C@H](C)Nc3ncnc4[nH]cnc34)n(-c3ccccc3)c(=O)c12` gave an IC50 against PIK3CD (Human) below 100 nM.
On to `Cc1ccccc1-n1c(Cn2nc(CO)c3c(N)ncnc32)cc2cccc(C)c2c1=O`, for which the values for the half-inhibitory concentration (IC50) against PIK3CA (human) and on PIK3CD (Human) were above 10 µM and 100 to 1000 nM, respectively.
At PIK3CB (Human), `Cc1cccc2cc(Cn3nc(-c4cn[nH]c4)c4c(N)ncnc43)n(-c3ccccc3C(C)C)c(=O)c12` registered a 50% inhibitory concentration (IC50) of 100 to 1000 nM.
For `CCC(Nc1ncnc2[nH]cnc12)c1cc2cccc(C)c2c(=O)n1C(C)C` (centres undefined), the IC50 against PIK3CA (human) is above 10 µM; at PIK3CD (Human) it was below 100 nM.
In the case of `Cc1ccccc1-n1c(Cn2nc(-c3ccc4nc(N)oc4c3)c3c(N)ncnc32)cc2cccc(C)c2c1=O`, the IC50 against PIK3CD (Human) was below 100 nM.
Take `Cc1cccc2cc(Cn3nc(-c4cc(O)cc(F)c4)c4c(N)ncnc43)n(-c3ccccc3)c(=O)c12`: on PIK3CA (human), the IC50 lay in the range of 0.1 to 1 µM.
`Cc1ccccc1-n1c(Cn2nc(C(=O)O)c3c(N)ncnc32)cc2cccc(C)c2c1=O`: the IC50 against PIK3CD (Human) lay in the range of 100 to 1000 nM.
In turn, `Cc1cccnc1-n1c(Cn2nc(-c3ccc(Cl)c(O)c3)c3c(N)ncnc32)cc2cccc(C)c2c1=O` came in with an IC50 on PIK3CA (human) above 10 µM.
`Cc1cccc2cc([C@H](C)Nc3ncnc4[nH]cnc34)n(C(C)C)c(=O)c12`: the IC50 against PIK3CD (Human) was below 100 nM.

The record behind these values is the Kinase Knowledgebase extract (Sharma et al. 2016).
